Data on 21 compounds can be found in US9682092B2, “Boron-containing small molecules as anti-inflammatory agents” (ANACOR PHARMACEUTICALS, INC., priority 2006, dated 2017).

On to `OB1OCc2ccc(Oc3ccc(OC(F)(F)F)cc3)cc21` [C29, 6-(4-trifluoromethoxyphenoxy)-1,3-dihydro-1-hydroxy-2,1-benzoxaborole], for which the melting point (as a rule, the temperature, or range, at which the solid turns liquid) fell in the range of 97 to 101 °C.

As for `OB1OCc2ccc(-n3cc(Sc4ccccc4)c4ccccc43)cc21` [C66, 6-(3-(phenylthio)-1H-indol-1-yl)benzo[c][1,2]oxaborol-1(3H)-ol], the melting point fell in the range of 159 to 163 °C. The same measure for `O=C(O)COc1ccc2c(c1)COB2O` [C42, 2-(1-hydroxy-1,3-dihydrobenzo[c][1,2]oxaborol-5-yloxy)acetic acid]: 163 to 166 °C; for `OB1OCc2ccc(N3CCN(c4ccccn4)CC3)cc21` [C48, 6-(4-(pyridin-2-yl)piperazin-yl)benzo[c][1,2]oxaborol-1(3H)-ol]: 135 to 138 °C; for `OB1OCc2ccc(Sc3ccc(Cl)cc3)cc21` [C88, 6-(4-chlorophenylthio)benzo[c][1,2]oxaborol-1(3H)-ol]: 157 to 161 °C.

In turn, `OB1OCc2ccc(Oc3ccc(C(F)(F)F)cc3)cc21` [C87, 6-(4-(trifluoromethyl)phenoxy)benzo[c][1,2]oxaborol-1(3H)-ol] had a melting point of 98 to 105 °C. The same measure for `OB1OCc2cccc(F)c21` [C86, 7-fluorobenzo[c][1,2]oxaborol-1(3H)-ol]: 120 to 124 °C; for `COc1ccc(Oc2ccc3c(c2)B(O)OC3)cc1` [C31, 6-(4-Methoxyphenoxy)-1,3-dihydro-1-hydroxy-2,1-benzoxaborole]: 126 to 129 °C; for `COc1ccc2c(c1)COB2O` [C7, 1,3-Dihydro-1-hydroxy-5-methoxy-2,1-benzoxaborole]: 102 to 104 °C. Take `OB1OCc2ccc(Sc3ccc(F)cc3)cc21` [C44, 6-(4-fluorophenylthio)benzo[c][1,2]oxaborol-1(3H)-ol]: the melting point is 135 to 138 °C. The same measure for `N#CCCSc1cn(-c2ccc3c(c2)B(O)OC3)c2ccc(Cl)cc12` [C76, 3-(5-chloro-1-(1-hydroxy-1,3-dihydrobenzo[c][1,2]oxaborol-6-yl)-1H-indol-3-ylthio)propanenitrile]: greater than 225 °C.

In turn, `COc1ccc(Sc2ccc3c(c2)B(O)OC3)cc1` [C32, 6-(4-Methoxyphenylthio)-1,3-dihydro-1-hydroxy-2,1-benzoxaborole] displayed a melting point of 95 to 100 °C. `N#Cc1ccc(Oc2cccc(B(O)O)c2)cc1` [C98, 3-(4-Cyanophenoxy)phenylboronic acid]: the melting point is 153 to 162 °C. Consider `OB1OCc2ccc(Sc3cccs3)cc21` [C43, 6-(thiophen-2-ylthio)benzo[c][1,2]oxaborol-1(3H)-ol], for which the melting point lay in the range of 99 to 104 °C. For `OB1OCc2cc3c(cc21)OCO3` [C69, 5,6-methylenedioxybenzo[c][1,2]oxaborol-1(3H)-ol.] the value was 185 to 189 °C. Compound `OB1OCc2ccc(N3CCOCC3)cc21` [C56, 6-morpholinobenzo[c][1,2]oxaborol-1(3H)-ol] came in with a melting point of 128 to 132 °C. `OB1OCc2ccc(Sc3ccccc3)cc21` [C28, 6-Phenylthio-1,3-dihydro-1-hydroxy-2,1-benzoxaborole] yielded a melting point of 121 to 124 °C. For `OB1OCc2ccc(-n3cc(Sc4ccccc4)c4cc(Cl)ccc43)cc21` [C80, 6-(5-chloro-3-(phenylthio)-1H-indol-1-yl)benzo[c][1,2]oxaborol-1(3H)-ol] the value was 145 to 151 °C; for `COc1ccc2c(ccn2-c2ccc3c(c2)B(O)OC3)c1` [C68, 6-(5-methoxy-1H-indol-1-yl)benzo[c][1,2]oxaborol-1(3H)-ol], 120 to 124 °C; for `OB1OCc2ccc(-n3ccc4ccccc43)cc21` [C55, 6-(1H-indol-1-yl)benzo[c][1,2]oxaborol-1(3H)-ol], 135 to 140 °C. The same measure for `N#Cc1ccc(Oc2cccc3c2B(O)OC3)cc1` [C74, 4-(1-hydroxy-1,3-dihydrobenzo[c][1,2]oxaborol-7-yloxy)benzonitrile]: 148 to 153 °C.
